Here are results for 1 compound from patent publication US20050175550A1, “Compositions for oral use” (priority 2000, published 2005).

Holding throughout (experiment): MIC by agar plate dilution method on standard strains (Example 3)
Holding throughout (assay type): cell-based

Assay [1] has as its system Micrococcus luteus ATCC9341. The protocol:
(§1) Drug solutions at a concentration 10 times as high as the maximum applicable concentration were prepared as original solutions of test drugs given in Table 2 (as to solvents used for this purpose, reference should be made also to Table 2). Serial two-fold dilution series of the original solutions were prepared at desired stages, and 1 ml each of the diluted drug solutions was added to 9 ml of media given in Table 3 to prepare drug plates. […] • 1) Bacterial solutions stocked at −80° C. were inoculated on agar media (as to media used, reference should be made to Table 3), and then incubated at 37° C. overnight. When desired, subculturing was conducted once more on the same agar media (by overnight incubation at 37° C.). • 2) Colonies growing on the agar media were sampled by a platinum loop, suspended in liquid media (reference should be made to Table 3) and statically incubated at 37° C. for 18 hours (preculturing). • 3) Preculturing was continued up to McFarland 0.5 (McFarland 0.5=about 10^8 CFU/ml), and then the culture broths were diluted with Muellar Hinton Broth to make 10^6 CFU/ml. 5 μl each of the diluted solutions were inoculated on the above-mentioned drug plates by an inoculator Microplanter. […] Thus, bacterial solutions at about 10^8 CFU/ml can be easily prepared by use of McFarland 0.5. Bacterial solutions at such a turbidity are commercially available, but can be easily prepared.

Assay [2] concerns Moraxella (Branhamella) catarrhalis ATCC25240. On the procedure: as §1
Assay [3] concerns Moraxella (Branhamella) catarrhalis ATCC43617. On the procedure: as §1
The test system of assay [4] is Pseudomonas aeruginosa ATCC27853. On the procedure:
as §1

The subject of assay [5] is Serratia marcescens ATCC13880. On the procedure: as §1
Assay [6] has as its system Staphylococcus aureus ATCC29247. The protocol: as §1
Assay [7] relates to Staphylococcus aureus ATCC6538P. On the procedure: as §1
In assay [8] the test system is Streptococcus pneumoniae ATCC49619. The protocol: as §1
Assay [9] concerns Streptococcus pneumoniae ATCC6301. The protocol: as §1
The subject of assay [10] is Streptococcus pneumoniae ATCC6303. On the procedure: as §1
Assay [11] deals with Streptococcus pneumoniae ATCC6306. The protocol:
as §1

Assay [12] deals with Streptococcus pyogenes ATCC12353. On the procedure:
as §1

Assay [13] deals with Streptococcus pyogenes ATCC12385. The protocol:
as §1

In brackets after ≈: the same amount, converted by molar mass.

As to `N[C@@H](CCSC(F)(F)F)C(=O)O` [TFM, Trifluoromethionine], the MIC (usually the smallest concentration in the dilution series that meets the test's criterion for growth inhibition) is above 400 µg/mL in [1]; 25 µg/mL (≈ 123 µM) in assay [2]; 100 µg/mL (≈ 492 µM) in assay [3]; above 400 µg/mL in [4]; above 400 µg/mL in assay [5]; above 400 µg/mL in assay [6]. For the same compound, the MIC in assay [7], in assay [8], in [9], in assay [10], in assay [11] and in assay [12] was above 400 µg/mL throughout. This compound returned a minimum inhibitory concentration (MIC) in assay [13] above 400 µg/mL.
